Source: US10300070B2, “Metabolically-activated drug conjugates to overcome resistance in cancer therapy” (The Brigham and Women's Hospital, Inc., priority 2014, dated 2019)

B1: IL-23: recombinant cytokine purchased from Biolegend (protein, UniProt Q9NPF7 20-189; P29460 23-328, looked up)
Interleukin-23 subunit alpha: RAVPGGSSPAWTQCQQLSQKLCTLAWSAHPLVGHMDLREEGDEETTNDVPHIQCGDGCDPQGLRDNSQFCLQRIHQGLIFYEKLLGSDIFTGEPSLLPDSPVGQLHASLLGLSQLLQPEGHHWETQQIPSLSPSQPWQRLLLRFKILRSLQAFVAVAARVFAHGAATLSP
Interleukin-12 subunit beta: IWELKKDVYVVELDWYPDAPGEMVVLTCDTPEEDGITWTLDQSSEVLGSGKTLTIQVKEFGDAGQYTCHKGGEVLSHSLLLLHKKEDGIWSTDILKDQKEPKNKTFLRCEAKNYSGRFTCWWLTTISTDLTFSVKSSRGSSDPQGVTCGAATLSAERVRGDNKEYEYSVECQEDSACPAAEESLPIEVMVDAVHKLKYENYTSSFFIRDIIKPDPPKNLQLKPLKNSRQVEVSWEYPDTWSTPHSYFSLTFCVQVQGKSKREKKDRVFTDKTSATVICRKNASISVRAQDRYYSSSWSEWASVPCS

How the values were obtained:
Type in all cases: cell-based
MDA-MB-231 parent or DTC [1] = assay: Glucose uptake (2-NBDG) determined by FACS; details: for 2-NBDG uptake after exogenously-added cytokines: MDA-MB-231 parent cells, 24 hours incubation, 50 ng/ml; for suppression of glucose consumption (2-NBDG uptake): incubation 3 h, DTC compared to drug naïve parent cells
Description: (§1) MDA-MB-231 (ATCC), MDA-MB-468 and 4T-1 mammary carcinoma cells (ATCC) were cultured in DMEM containing 10% Fetal Bovine Serum (FBS) at 37 C and 5% CO2. DU145 and DU145-TxR were provided by A. Mizokami^63 and cultured in DMEM containing 10% FBS, resistant line included 100 nM paclitaxel in the culture media. During treatments with chemotherapeutics, cells were grown to semi-confluence and treated with indicated concentrations of chemotherapy in serum-containing medium for indicated time points. When small molecule inhibitors were included in treatments, they were added simultaneously with chemotherapy. For siRNA gene knockdown, cells were transfected with silencer-select siRNA plasmids (Ambion, Invitrogen, Grand Island, N.Y.) pan-CD44(1) (s2682) panCD44(2) (s2681), siHIF1A (s6539) using lipofectamine 2000 (Invitrogen, Carlsbad Calif.) following manufacturer protocol and cultured for 72 hours prior to treatment. Scrambled siRNA was used as a control. For chemotherapy treatment experiments: Cancer cells were plated at a density of 0.5-1×10^5 cells/ml and allowed to adhere for 24-48 hr. When cells reached ˜70% confluency they were treated with cytotoxics at indicated concentrations for 24-48 hours and utilized for subsequent assays. For experiments in which a shorter incubation was used (i.e. 15 min-4 hours) fresh media was added 24 hours prior to addition of chemotherapy suspended to stock concentration in PBS. For generation of DTC: Cells were treated for 48 hours with chemotherapy. Following washes with PBS, adherent cells were trypsinized and re-plated at a density of 1.5-2×10^5 cells/ml and cultured in serum-containing medium. After 24 hours incubation, floating cells were removed and remaining cells were washed with 1× PBS and considered as chemotherapy-tolerant cells. A population of drug naïve parent cells were always cultured alongside DTC and fresh media was added at every interval that experimental population (DTC) received fresh media.
In vitro detection of glucose uptake was performed using 2-(N-7-Nitrobenz-2-oxa-1,3-diazol-4-yl)Amino)-2-Deoxyglucose (2-NBDG) (Invitrogen, Carlsbad Calif.), dissolved in DMSO to 50 mM. Cells were pre-treated with kinase inhibitors or vehicle for 3 hours in glucose- and phenol red-free media before addition of 50 μM 2-NBDG and subsequently read by FACS ex/em 488/535 nm. ROS was determined by pre-loading cells with CM-DCFDA (1 μM), washed 2 times with PBS and subsequently treated with H2O2 or vehicle; when kinase inhibitors were included in treatment, cells were first incubated with inhibitor for 3 hours prior to CM-DCFDA loading. Fluorescence was then determined by FACS ex/em 488/535 nm. For the following assays, cells were trypsinized and counted by Nexcelom cell counter (Lawrence, Mass.) prior to being subjected to analysis in order to achieve a quantitative value per cell: Reduced glutathione was determined using a colorimetric glutathione recycling system by DTNB following manufacturer protocol (Biovision, Milpitas Calif.). ATP analysis was performed using the ATP colorimetric analysis kit (Biovision) according to manufacturer protocol. Reductive stress was detected using the Enzo nitroreductase hypoxia kit (Enzo Life Sciences, Ann Arbor Mich.) following manufacturer protocol and visualized by fluorescent microscopy; a set of non-docetaxel-treated control cells loaded with fluorescent probe were compared against docetaxel-treated cells to derive a % redox stress increase which was calculated as fluorescence intensity of nitroreductase probe per cell and expressed as increase from vehicle. Protein synthesis was measured by two means 1. L-azidohomoalanine amino acid analog of methionine containing an azide moiety was added to cultured cells (parent or DTC) for 3 hours which is incorporated into proteins during active protein synthesis. […]

CD44 = assay: Cell surface CD44 expression by FACS; details: for CD44 expression after exogenous cytokine: MDA-MB-231, within 4 hours
Description: DU145 and DU145-TxR were provided by A. Mizokami^63 and cultured in DMEM containing 10% FBS, resistant line included 100 nM paclitaxel in the culture media. During treatments with chemotherapeutics, cells were grown to semi-confluence and treated with indicated concentrations of chemotherapy in serum-containing medium for indicated time points. When small molecule inhibitors were included in treatments, they were added simultaneously with chemotherapy. […] Scrambled siRNA was used as a control. For chemotherapy treatment experiments: Cancer cells were plated at a density of 0.5-1×10^5 cells/ml and allowed to adhere for 24-48 hr. […] Following washes with PBS, adherent cells were trypsinized and re-plated at a density of 1.5-2×10^5 cells/ml and cultured in serum-containing medium. […] A population of drug naïve parent cells were always cultured alongside DTC and fresh media was added at every interval that experimental population (DTC) received fresh media.
Cells were cultured as indicated, removed from culture dishes with accutase stem-pro dissociation reagent (Invitrogen, Carlsbad Calif.) and fixed with 4% paraformaldehyde in PBS for 30 min at RT, washed twice with PBS and blocked in 10% goat serum (v/v). Whenever necessary, cells were permeabilized with 0.05% saponin in PBS. Cells were incubated with CD44-APC (BD biosciences, San Jose, Calif.) overnight at 4 C and analyzed by FACS (C6 Accuri cyomteters Inc Ann Arbor, Mich.), data analysis using FlowJo software (Tree Star Inc., Ashland Oreg.) and Accuri cFlow plus software to obtain and confirm mean fluorescent intensity (GNU.org).

MDA-MB-231 parent or DTC [2] = assay: Cell viability (MTS) and trypan blue exclusion of parent or DTC treated with doxorubicin
Description: as §1
Following drug incubation, cells were washed and suspended in phenol red-free RPMI or DMEM and subsequently treated with MTS reagent using manufacturer protocol (Promega, Madison, Wis.). Trypan blue exclusion was used to validate experiments and evaluate % of dead cells performed by bright field microscopy.

DTC = assay: Total intracellular reduced glutathione (GSH) in drug tolerant cells; details: acute (3 hours) exposure; ML-265 10 μM, catalase 2000 U/ml
Description: In vitro detection of glucose uptake was performed using 2-(N-7-Nitrobenz-2-oxa-1,3-diazol-4-yl)Amino)-2-Deoxyglucose (2-NBDG) (Invitrogen, Carlsbad Calif.), dissolved in DMSO to 50 mM. Cells were pre-treated with kinase inhibitors or vehicle for 3 hours in glucose- and phenol red-free media before addition of 50 μM 2-NBDG and subsequently read by FACS ex/em 488/535 nm. ROS was determined by pre-loading cells with CM-DCFDA (1 μM), washed 2 times with PBS and subsequently treated with H2O2 or vehicle; when kinase inhibitors were included in treatment, cells were first incubated with inhibitor for 3 hours prior to CM-DCFDA loading. Fluorescence was then determined by FACS ex/em 488/535 nm. For the following assays, cells were trypsinized and counted by Nexcelom cell counter (Lawrence, Mass.) prior to being subjected to analysis in order to achieve a quantitative value per cell: Reduced glutathione was determined using a colorimetric glutathione recycling system by DTNB following manufacturer protocol (Biovision, Milpitas Calif.). […] Protein synthesis was measured by two means 1. […] Fluorescence was detected by FACS as described below. […] GFP protein translation was determined by fluorescent microscopy. […] Individual cells were evaluated for fluorescent intensity of caspase-3 activity (red signal intensity) and green fluorescent protein intensity. […]

Row | Molecule | 2-NBDG uptake after exogenously-added cytokines (MDA-MB-231 parent or DTC [1]) | CD44 expression after exogenous cytokine (CD44) | also measured
1 | IL-8: recombinant cytokine purchased from Biolegend | didn't observe any alterations in 2-NBDG uptake |  | 
2 | Cc1ccc(S(=O)(=O)/C=C/C#N)cc1 [Bay-11] |  |  | chemotherapy early-induced CD44 expression (CD44; DTX 25 nM, 4 h, Bay-11 10 μM, neutralizing antibodies 2 μg/ml): modulated chemotherapy early-induced CD44 expression
3 | COc1cccc2c1C(=O)c1c(O)c3c(c(O)c1C2=O)C[C@@](O)(C(=O)CO)C[C@@H]3O[C@H]1C[C@H](N)[C@H](O)[C@H](C)O1 [doxorubicin, (1S,3S)-3-Glycoloyl-3,5,12-trihydroxy-10-methoxy-6,11-dioxo-1,2,3,4,6,11-hexahydro-1-tetracenyl 3-amino-2,3,6-trideoxy-α-L-lyxo-hexopyranoside] |  |  | response of DTC to doxorubicin (trypan blue exclusion) (MDA-MB-231 parent or DTC [2]; 72 h, DTC vs parent): DTC developed resistance; doxorubicin-mediated toxicity with PPP intermediates (MDA-MB-231 parent or DTC [2]; drug naïve parent cells co-treated with exogenous NADPH, GSH or ectopic G6PD expression): reduction of doxorubicin-mediated toxicity
4 | IFN-γ: recombinant cytokine purchased from Biolegend | didn't observe any alterations in 2-NBDG uptake | able to independently drive CD44 expression in a dose-dependent manner | 
5 | Cn1c2cc([S+](C)[O-])sc2c2cnn(Cc3cccc(N)c3)c(=O)c21 (stereo not shown) [ML-265] |  |  | total levels of reduced glutathione (GSH) in DTC (DTC): diminished total levels of reduced glutathione in DTC
6 | Oc1cccc(-c2nc(N3CCOCC3)c3oc4ncccc4c3n2)c1 [PI103, 3-(4-(4-Morpholinyl)pyrido[3′,2′:4,5]furo[3,2-d]pyrimidin-2-yl)phenol] |  |  | response to dox in combination with inhibitor, DTC (MDA-MB-231 parent or DTC [2]; DTC, co-incubated with dox, 48 h, PI103 5 μM, lonidamine 10 μM, KB-458 and KB-697 10 μM): exquisitely responsive, overtly driven to cell death by dox in combination; response to dox in combination with inhibitor, parent cells (MDA-MB-231 parent or DTC [2]; drug naïve parent cells, co-incubated with dox, 48 h): little synergism or a reversion of synergy; suppression of glucose consumption (2-NBDG uptake) (MDA-MB-231 parent or DTC [1]): greater suppression of glucose consumption in the DTC subset compared to drug naïve parent cells
7 | IL-6: recombinant cytokine purchased from Biolegend | didn't observe any alterations in 2-NBDG uptake |  | 
8 | GM-CSF: recombinant cytokine purchased from Biolegend | didn't observe any alterations in 2-NBDG uptake | able to independently drive CD44 expression in a dose-dependent manner | 
9 | CO[C@H]1C[C@@H]2CC[C@@H](C)[C@@](O)(O2)C(=O)C(=O)N2CCCC[C@H]2C(=O)O[C@H]([C@H](C)C[C@@H]2CC[C@@H](OCCO)[C@H](OC)C2)CC(=O)[C@H](C)/C=C(\C)[C@@H](O)[C@@H](OC)C(=O)[C@H](C)C[C@H](C)/C=C/C=C/C=C/1C [Everolimus, 40-O-(2-hydroxyethyl)-rapamycin] |  |  | suppression of glucose consumption (2-NBDG uptake) (MDA-MB-231 parent or DTC [1]): greater suppression of glucose consumption in the DTC subset compared to drug naïve parent cells
10 | B1 | didn't observe any alterations in 2-NBDG uptake | able to independently drive CD44 expression in a dose-dependent manner | 
